We go through one compound from BindingDB's records for doi:10.1016/j.bmcl.2009.10.049 (Wyeth Research, 2009).

SMILES strings stand for the structures.

In this assay the target is 3-phosphoinositide-dependent protein kinase 1 (Homo sapiens) (UniProt O15530). Briefly: Inhibition of PDK1.

For `CN(C)Cc1ccc(-c2cnn3c(-c4cccc(NC(=O)c5cccc(C(F)(F)F)c5)c4)ccnc23)cc1` [N-[3-(3-{4-[(dimethylamino)methyl]phenyl}pyrazolo[1,5-a]pyrimidin-7-yl)phenyl]-3-(trifluoromethyl)benzamide], the IC50 (as a rule, the concentration that inhibits the measured activity by half) was over 2 µM.
